Converted amounts (≈) assume the structure as drawn. The source made the active and inactive calls. The calls are words filed in the database; no cut-off is given here.
Key:
Aspergillus niger [1] = experiment: Antifungal activity against Aspergillus niger MSCL 324 at 10 mg/ml after 48 hrs by agar dish diffusion method; type: functional; settings: for zone of inhibition at 10000 µg/mL: MSCL 324, 48 h, read-out: DIZ
Aspergillus niger [2] = experiment: Antifungal activity against Aspergillus niger MSCL 324 at 5 mg/ml after 48 hrs by agar dish diffusion method; type: functional; settings: for zone of inhibition at 5000 µg/mL: MSCL 324, 48 h, read-out: DIZ
Candida albicans [3] = experiment: Antifungal activity against Candida albicans MSCL 378 at 5 mg/ml after 48 hrs by agar dish diffusion method; type: functional; settings: for zone of inhibition at 5000 µg/mL: MSCL 378, 48 h, read-out: DIZ
Staphylococcus aureus [4] = experiment: Antibacterial activity against Staphylococcus aureus MSCL 334 at 5 mg/ml after 24 hrs by agar dish diffusion method; type: functional
Proteus mirabilis [5] = experiment: Antibacterial activity against Proteus mirabilis MSCL 590 at 10 mg/ml after 24 hrs by agar dish diffusion method; type: functional
Staphylococcus aureus [6] = experiment: Antibacterial activity against Staphylococcus aureus MSCL 334 at 10 mg/ml after 24 hrs by agar dish diffusion method; type: functional; settings: for zone of inhibition at 10000 µg/mL: MSCL 334, 24 h, read-out: DIZ
Pseudomonas aeruginosa [7] = experiment: Antibacterial activity against Pseudomonas aeruginosa MSCL 331 at 5 mg/ml after 24 hrs by agar dish diffusion method; type: functional
Proteus mirabilis [8] = experiment: Antibacterial activity against Proteus mirabilis MSCL 590 at 5 mg/ml after 24 hrs by agar dish diffusion method; type: functional
Pseudomonas aeruginosa [9] = experiment: Antibacterial activity against Pseudomonas aeruginosa MSCL 331 at 10 mg/ml after 24 hrs by agar dish diffusion method; type: functional
Candida albicans [10] = experiment: Antifungal activity against Candida albicans MSCL 378 at 10 mg/ml after 48 hrs by agar dish diffusion method; type: functional; settings: for zone of inhibition at 10000 µg/mL: MSCL 378, 48 h, read-out: DIZ
Escherichia coli [11] = experiment: Antibacterial activity against Escherichia coli MSCL 332 at 5 mg/ml after 24 hrs by agar dish diffusion method; type: functional
Bacillus cereus [12] = experiment: Antibacterial activity against Bacillus cereus MSCL 330 at 5 mg/ml after 24 hrs by agar dish diffusion method; type: functional; settings: for zone of inhibition at 5000 µg/mL: MSCL 330, 24 h, read-out: DIZ
Escherichia coli [13] = experiment: Antibacterial activity against Escherichia coli MSCL 332 at 10 mg/ml after 24 hrs by agar dish diffusion method; type: functional
Bacillus cereus [14] = experiment: Antibacterial activity against Bacillus cereus MSCL 330 at 10 mg/ml after 24 hrs by agar dish diffusion method; type: functional; settings: for zone of inhibition at 10000 µg/mL: MSCL 330, 24 h, read-out: DIZ
MG-22A [15] = experiment: Induction of nitric oxide production in mouse MG-22A cells by Griess assay; type: functional; set-up: concentration or dose not given beside the values
Bacillus cereus [16] = experiment: Bactericidal activity against Bacillus cereus MSCL 330 incubated for 24 hrs followed by colony transfer to agar plates for 24 hrs by colony counting based assay; type: functional; settings: MSCL 330, 24 h, read-out: MBC99.9
Aspergillus niger [17] = experiment: Fungicidal activity against Aspergillus niger MSCL 324 incubated for 24 hrs followed by colony transfer to agar plates for 24 hrs by colony counting based assay; type: functional; settings: MSCL 324, 24 h, read-out: MFC99.9
MG-22A [18] = experiment: Cytotoxicity against mouse MG-22A cells assessed as cell viability at 6.25 to 50 ug/ml by crystal violet-based assay; type: functional; settings: read-out: LC50 (the source's name)
Candida albicans [19] = experiment: Antifungal activity against Candida albicans MSCL 378 after 24 hrs by broth dilution method; type: functional; settings: MSCL 378, 24 h
Aspergillus niger [20] = experiment: Antifungal activity against Aspergillus niger MSCL 324 after 24 hrs by broth dilution method; type: functional; settings: MSCL 324, 24 h
[21] = Cytotoxicity against human HT1080 cells assessed as cell viability at 6.25 to 50 ug/ml after 72 hrs by MTT assay; type: functional; settings: HT-1080, 72 h, read-out: LC50 (the source's name)
Candida albicans [22] = experiment: Fungicidal activity against Candida albicans MSCL 378 incubated for 24 hrs followed by colony transfer to agar plates for 24 hrs by colony counting based assay; type: functional; settings: MSCL 378, 24 h, read-out: MFC99.9
Bacillus cereus [23] = experiment: Antibacterial activity against Bacillus cereus MSCL 330 after 24 hrs by broth dilution method; type: functional; settings: MSCL 330, 24 h
HT-1080 = experiment: Induction of nitric oxide production in human HT1080 cells by Griess assay; type: functional; set-up: concentration or dose not given beside the values
[24] = Cytotoxicity against human HT1080 cells assessed as cell viability at 6.25 to 50 ug/ml by crystal violet-based assay; type: functional; settings: HT-1080, read-out: LC50 (the source's name)
MG-22A [25] = experiment: Cytotoxicity against mouse MG-22A cells assessed as cell viability at 6.25 to 50 ug/ml after 72 hrs by MTT assay; type: functional; settings: read-out: LC50 (the source's name)
[26] = Cytotoxicity against mouse NIH/3T3 cells assessed as cell viability at 6.25 to 50 ug/ml by neutral red-based assay; settings: nih3t3
Staphylococcus aureus [27] = experiment: Antibacterial activity against Staphylococcus aureus MSCL 334 after 24 hrs by broth dilution method; type: functional; settings: MSCL 334, 24 h
Staphylococcus aureus [28] = experiment: Bactericidal activity against Staphylococcus aureus MSCL 334 incubated for 24 hrs followed by colony transfer to agar plates for 24 hrs by colony counting based assay; type: functional; settings: MSCL 334, 24 h, read-out: MBC99.9
Escherichia coli [29] = experiment: Antibacterial activity against Escherichia coli MSCL 332 after 24 hrs by broth dilution method; type: functional; settings: MSCL 332, 24 h
Escherichia coli [30] = experiment: Bactericidal activity against Escherichia coli MSCL 332 incubated for 24 hrs followed by colony transfer to agar plates for 24 hrs by colony counting based assay; type: functional; settings: MSCL 332, 24 h, read-out: MBC99.9

| Compound | zone of inhibition at 10000 µg/mL (Aspergillus niger [1]) | zone of inhibition at 5000 µg/mL (Aspergillus niger [2]) | Activity (MG-22A [15]) | zone of inhibition at 5000 µg/mL (Candida albicans [3]) | MBC (Bacillus cereus [16]) | MFC (Aspergillus niger [17]) | CC50 (MG-22A [18]) | zone of inhibition at 10000 µg/mL (Staphylococcus aureus [6]) | MIC (Candida albicans [19]) | MIC (Aspergillus niger [20]) | CC50 [21] | MFC (Candida albicans [22]) | zone of inhibition at 10000 µg/mL (Candida albicans [10]) | MIC (Bacillus cereus [23]) | Activity (HT-1080) | CC50 [24] | zone of inhibition at 5000 µg/mL (Bacillus cereus [12]) | CC50 (MG-22A [25]) | LC50 [26] | zone of inhibition at 10000 µg/mL (Bacillus cereus [14]) | further results |
| --- | --- | --- | --- | --- | --- | --- | --- | --- | --- | --- | --- | --- | --- | --- | --- | --- | --- | --- | --- | --- | --- |
| GENTAMICIN |  |  |  |  |  |  |  |  |  |  |  |  |  |  |  |  |  |  |  |  | diameter of the inhibition zone (DIZ) (Aspergillus niger [1]): inactive; diameter of the inhibition zone (DIZ) (Aspergillus niger [2]): inactive; diameter of the inhibition zone (DIZ) (Candida albicans [3]): inactive; inhibition zone (IZ) (Staphylococcus aureus [4]): 30 mm; inhibition zone (IZ) (Proteus mirabilis [5]): 31 mm; inhibition zone (IZ) (Staphylococcus aureus [6]): 32 mm; inhibition zone (IZ) (Pseudomonas aeruginosa [7]): 31 mm; inhibition zone (IZ) (Proteus mirabilis [8]): 28 mm; inhibition zone (IZ) (Pseudomonas aeruginosa [9]): 32 mm; diameter of the inhibition zone (DIZ) (Candida albicans [10]): inactive; inhibition zone (IZ) (Escherichia coli [11]): 27 mm; inhibition zone (IZ) (Bacillus cereus [12]): 35 mm; inhibition zone (IZ) (Escherichia coli [13]): 30 mm; inhibition zone (IZ) (Bacillus cereus [14]): 36 mm |
| CCCCCCCCCCOCCc1scnc1C | 11 mm | 11 mm | 200% | 13 mm | > 256 µg/mL | 64 µg/mL (≈ 226 µM) | 38.8 µM | 10 mm | > 256 µg/mL | 32 µg/mL (≈ 113 µM) | 63.6 µM | > 256 µg/mL | 9 mm | 2 µg/mL (≈ 7.06 µM) | 400% | 60 µM | 9 mm | 45.9 µM | 84.8 µM | 10 mm | diameter of the inhibition zone (DIZ) (Staphylococcus aureus [4]): inactive; diameter of the inhibition zone (DIZ) (Proteus mirabilis [5]): inactive; diameter of the inhibition zone (DIZ) (Pseudomonas aeruginosa [7]): inactive; diameter of the inhibition zone (DIZ) (Proteus mirabilis [8]): inactive; diameter of the inhibition zone (DIZ) (Pseudomonas aeruginosa [9]): inactive; diameter of the inhibition zone (DIZ) (Escherichia coli [11]): inactive; diameter of the inhibition zone (DIZ) (Escherichia coli [13]): inactive |
| CCCCCCCCCCOCCc1sc[n+](C)c1C.[I-] | 15 mm | 12 mm | 150% | 29 mm | 64 µg/mL | 32 µg/mL | 0.23 µM | 25 mm | 16 µg/mL | 16 µg/mL | 0.94 µM | 32 µg/mL | 33 mm | 32 µg/mL | 150% | 0.47 µM | 29 mm | 1.17 µM | 37.6 µM | 30 mm | zone of inhibition at 5000 µg/mL (Staphylococcus aureus [4]; MSCL 334, 24 h, read-out: DIZ): 25 mm; MIC (Staphylococcus aureus [27]): 2 µg/mL; zone of inhibition at 10000 µg/mL (Proteus mirabilis [5]; MSCL 590, 24 h, read-out: DIZ): 20 mm; MBC (Staphylococcus aureus [28]): 4 µg/mL; zone of inhibition at 5000 µg/mL (Pseudomonas aeruginosa [7]; MSCL 331, 24 h, read-out: DIZ): 9 mm; zone of inhibition at 5000 µg/mL (Proteus mirabilis [8]; MSCL 590, 24 h, read-out: DIZ): 17 mm; zone of inhibition at 10000 µg/mL (Pseudomonas aeruginosa [9]; MSCL 331, 24 h, read-out: DIZ): 15 mm; MIC (Escherichia coli [29]): 32 µg/mL; MBC (Escherichia coli [30]): 32 µg/mL; zone of inhibition at 5000 µg/mL (Escherichia coli [11]; MSCL 332, 24 h, read-out: DIZ): 15 mm; zone of inhibition at 10000 µg/mL (Escherichia coli [13]; MSCL 332, 24 h, read-out: DIZ): 20 mm |
